Read-outs that look alike come from different tables or passages of the source. *1 amine or outer side, *2 acyl side, *3 side chain or, on linkers, in order; H or OH if unused. Where a SMILES comes first, the peptide text is derived from it. Bridges are numbered along the chain shown (N, C = ends). [ ]: non-standard residue; d: D form. The star is where a group is joined. Ala(piperidin-4-yl) = O=C([C@H](CC1CCN([*:3])CC1)N[*:1])[*:2]; DOTA = O=C(O)CN1CCN(CC(=O)O)CCN(CC(=O)*)CCN(CC(=O)O)CC1; X2 = O=C(Cc1ccc(I)cc1)NCCOCCOCCOCCOCCOCCOCCOCCOCC(=O)*; 2Nal = N[C@@H](Cc1ccc2ccccc2c1)C(=O)O; Chg = N[C@H](C(=O)O)C1CCCCC1; NMeNle = CCCC[C@H](NC)C(=O)O; Tle = CC(C)(C)[C@H](N)C(=O)O; CH2 = C([*:1])[*:2]
T1: DLL3 (Homo sapiens, UniProt Q9NYJ7)
T1 sequence (Q9NYJ7 27-618): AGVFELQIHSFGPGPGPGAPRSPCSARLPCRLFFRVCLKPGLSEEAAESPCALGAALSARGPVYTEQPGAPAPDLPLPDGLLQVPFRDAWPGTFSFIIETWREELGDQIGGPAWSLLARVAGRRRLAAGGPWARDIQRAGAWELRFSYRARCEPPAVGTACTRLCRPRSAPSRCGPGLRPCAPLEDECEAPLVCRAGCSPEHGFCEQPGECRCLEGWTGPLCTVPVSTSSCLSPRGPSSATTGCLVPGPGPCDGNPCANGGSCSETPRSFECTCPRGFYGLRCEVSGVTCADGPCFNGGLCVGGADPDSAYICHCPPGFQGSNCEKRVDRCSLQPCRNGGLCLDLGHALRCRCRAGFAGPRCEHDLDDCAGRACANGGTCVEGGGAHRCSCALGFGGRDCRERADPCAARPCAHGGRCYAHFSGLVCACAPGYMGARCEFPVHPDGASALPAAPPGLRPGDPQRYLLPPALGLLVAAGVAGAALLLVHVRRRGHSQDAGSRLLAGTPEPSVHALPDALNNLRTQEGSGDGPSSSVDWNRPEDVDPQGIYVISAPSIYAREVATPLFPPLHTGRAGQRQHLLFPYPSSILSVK

T2: DLL3 (target ligand immobilized on a SA sensor chip via streptavidin capture) (Homo sapiens (Human), UniProt Q9NYJ7 27-492, limits assumed)
T2 sequence: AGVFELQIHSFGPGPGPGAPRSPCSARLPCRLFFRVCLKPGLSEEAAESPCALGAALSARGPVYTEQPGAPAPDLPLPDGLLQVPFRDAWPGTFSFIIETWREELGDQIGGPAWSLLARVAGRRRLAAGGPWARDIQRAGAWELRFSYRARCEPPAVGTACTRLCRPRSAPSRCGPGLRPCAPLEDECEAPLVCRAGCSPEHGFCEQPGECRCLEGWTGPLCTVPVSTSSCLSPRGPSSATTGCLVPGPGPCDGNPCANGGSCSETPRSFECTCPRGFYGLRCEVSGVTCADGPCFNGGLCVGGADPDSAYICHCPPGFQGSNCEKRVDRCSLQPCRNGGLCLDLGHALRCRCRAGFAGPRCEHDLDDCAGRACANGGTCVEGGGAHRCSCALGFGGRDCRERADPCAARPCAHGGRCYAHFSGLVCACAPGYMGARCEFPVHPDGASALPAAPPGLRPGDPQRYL


Legend:
[1] = tested on: CT26.DLL3 cells; test: Internalization of [177Lu]Lu-labeled peptide, CT26.DLL3 cells; assay type: cell-based; details: 1 h, 37° C.
Method: (§1) [^177Lu]LuCl3 was received from venders in HCl solution. For every mCi of [^177Lu]LuCl3 added to the reaction vial (1.5 mL Eppendorf vial), ammonium acetate buffer (0.2 M, pH 4.9, 100 μL, containing 1% w/v ascorbic acid and 6% v/v ethanol) and peptide conjugate (1 nmol; also referred to herein as “chelator-peptides”) was added. The pH of the solution was determined to be approximately 5 by using pH strips. The reaction vial was incubated at 80° C., 700 RPM for 17-20 minutes. A sample from the reaction was analyzed by RP-HPLC using an Agilent Infinity II 1260 HPLC to determine reaction completion and radiochemical purity of [^177Lu]Lu-chelator-peptides. HPLC conditions: Waters XBridge BEH C18 Column, 130A, 3.5 μm, 4.6 mm×250 mm; mobile phase: Solvent A=water (with 0.1% formic acid), solvent B=acetonitrile (with 0.1% formic acid). Gradients: 25-45% B in 10 minutes, 45-65% B in 12 minutes, 65-90% in 6 minutes at a flow rate of 0.5 mL/minutes Required amounts of the product was formulated in 1% PBSA for cell studies.
(§2) The study was conducted using SHP-77, CT26.WT, CT26.DLL3, and HEK293.DLL3 cells (Table 9)
(§3) Adherent cell studies: The cells were cultured in appropriate culture media (20 mL) in tissue culture treated T150 flasks at 37° C. and 5% C02. Adherent cells were detached (60-70% confluent) using 5 mL Versene at 37° C. for 3 minutes. After confirming the viability using countess and count of detached cells using Trypan blue, the cells were centrifuged at 4° C. for 5 minutes (1,000 rpm). The cell pellet obtained was washed once with PBS and resuspended in 1% PBSA to obtain the desired cell concentration (5-25 million cells/mL).
(§4) Cell numbers used for the assay were in the range of 5 million cells/condition-25 million cells/condition.
Internalization: The resuspended cells in 300 μL of 1% PBSA and counted in the gamma counter as “bound fraction” were collected in 1.5 mL Eppendorf tube and pelleted. The pelleted cells were incubated with 300 μL of 50 mM Glycine pH=2.5 for 3 minutes and then pelleted discarding the supernatant. This process was repeated one more time. The pelleted cells were washed with 300 μL of cold 1% PBSA and then resuspended in 300 μl 0.3M NaOH. This was counted in the gamma counter as “internalized fraction”.
(§5) In these Tables, “A” represents % s ≤25; “B” represents 25 <% ≤50; “C” represents % >50.

[2] = tested on: CT26.DLL3 cells; test: Cell binding (total uptake) of [177Lu]Lu-labeled peptide, CT26.DLL3 cells; assay type: cell-based; details: 1 h, 37° C.
Method: as §1, §2, §3, §4
Total uptake: Cells were incubated with 300 μL (0.8 μCi) of the incubation buffer (containing radiolabeled peptide [^177Lu]Lu-test peptide) for 1 hour at 37° C. (Table 10). Post incubation, the cells were pelleted and washed 2 times using cold PBS+1% BSA. The supernatant and washes were combined and counted together as “unbound fraction” in a gamma counter. The cells were then resuspended in 300 μL of 1% PBS+1% BSA and counted in the gamma counter as “bound fraction”.
as §5

[3] = molecular target: T1, DLL3; test: SPR KD, biotinylated human DLL3 on streptavidin chip (Table 8); set-up: biotin (biotinylated)
Text: Biotinylated target ligand human DLL3 was immobilized on a streptavidin sensor chip. A reference surface was set up for nonspecific binding and refractive index changes. […] Sensorgram curves were fitted with 1:1 binding model, and affinity and kinetic parameters were obtained using Biacore Insight evaluation 4.0. software.

[4] = tested on: nude mice bearing SHP-77 tumors; test: Ex vivo biodistribution of radiolabeled peptides (% IA/g) in nude mice bearing SHP-77 tumors; details: [177Lu]Lu labelling, 24 hours post-injection, intravenous
Method: Mice were intravenously injected (via the lateral tail vein) with a bolus dose of the radiolabeled peptides for ex vivo biodistribution studies when tumor volumes were in range of 200-400 mm^3 for xenograft mice and when age of the mice was 5-7 weeks for tumor naïve mice studies. To assess the amount of radionuclide injected into individual mice the syringe was assayed in a dose calibrator before and after injection for [^177Lu]Lu-peptide, then the injected dose was determined from the weight difference and concentration of the radionuclide solution.
Mice were euthanized at pre-determined time points and selected tissues were resected and collected into pre-weighed tubes. The tubes were then reweighed post resection, the difference giving the weight of each tissue. Radioactivity in each tissue was measured using a gamma counter. Counts were decay corrected to the time of injection and percentage of injected activity per gram (% IA/g) was calculated for each tissue based on the injected activity into each individual mouse. Injected activity was converted to counts based on the sensitivity of the gamma counter. The counts in tissue were then converted to the percentage of injected activity and this was divided by the mass of tissue to give % IA/g.

[5] = molecular target: T2, DLL3 (target ligand immobilized on a SA …); test: SPR, Biacore S200, target ligand on SA chip, 25 C, 1:1 fit
Method: Target ligand was immobilized on a SA sensor chip via streptavidin capture. A reference surface was set up for nonspecific binding and refractive index changes. For analysis of the kinetics of interactions, varying concentrations of peptides were injected at a flow rate of 50 μL/minute using running buffer containing 20 mM phosphate buffer with 2.7 mM KCl, 137 mM NaCl and 0.05% Surfactant P20. Sensorgram curves were fitted with 1:1 binding model, and affinity and kinetic parameters were obtained using either Biacore S200 evaluation software 1.1.1 or Biacore Insight evaluation 4.0.

[6] = biotinylated human DLL3 on streptavidin sensor chip, 25° C., 1:1 binding model; read-out: SPR KD

Row | Molecule | Kd [3, 6] [nM] | kidney uptake (% IA/g) [4] | Kd [5] [nM] | % Internalization (out of bound fraction) [1] | % Binding [2] | tumor uptake (% IA/g) [4] | Kd ([3]; read-out: SPR KD; biotinylated human DLL3 on streptavidin sensor chip, 25° C., 1:1 binding model) [nM]
1 | CC(=O)N[C@@H](Cc1c[nH]c2ccccc12)C(=O)N[C@H](C(=O)N[C@H](C(=O)N[C@H]1CSCSC[C@@H](C(=O)N[C@@H](Cc2c[nH]c3ccccc23)C(=O)N2CCC[C@H]2C(=O)N[C@H](CCCCNC(=O)COCCOCCOCCOCCOCCOCCOCCOCCNC(=O)Cc2ccc(I)cc2)C(N)=O)NC(=O)[C@H](CC(=O)O)NC(=O)[C@H](CCCCNC(=O)CN2CCN(CC(=O)O)CCN(CC(=O)O)CCN(CC(=O)O)CC2)NC(=O)[C@H](Cc2ccc3ccccc3c2)NC(=O)[C@H](CC(N)=O)NC(=O)[C@H](CC2CCNCC2)NC1=O)C1CCCCC1)[C@@H](C)O [compound 417] (Ac-WT[Chg]C[Ala(piperidin-4-yl)]N[2Nal]K(DOTA)DCWP[dK](X2)-NH2; linker 4-10 via CH2) | – | D (“D” represents % IA/g > 10 in kidney) | – | B (25 <% ≤50) | B (25 <% ≤50) | B (“B” represents % IA/g > 5 in tumor) | < 1
2 | Ac-MWQLCEWNNCWPV-NH2 (disulfide 5-10; SMILES CSCC[C@H](NC(C)=O)C(=O)N[C@@H](Cc1c[nH]c2ccccc12)C(=O)N[C@@H](CCC(N)=O)C(=O)N[C@@H](CC(C)C)C(=O)N[C@H]1CSSC[C@@H](C(=O)N[C@@H](Cc2c[nH]c3ccccc23)C(=O)N2CCC[C@H]2C(=O)N[C@H](C(N)=O)C(C)C)NC(=O)[C@H](CC(N)=O)NC(=O)[C@H](CC(N)=O)NC(=O)[C@H](Cc2c[nH]c3ccccc23)NC(=O)[C@H](CCC(=O)O)NC1=O) [SEQ ID NO 74] | – | – | 110 | – | – | – | –
3 | Ac-MWTLCDNWQTCWP-NH2 (disulfide 5-11; SMILES CSCC[C@H](NC(C)=O)C(=O)N[C@@H](Cc1c[nH]c2ccccc12)C(=O)N[C@H](C(=O)N[C@@H](CC(C)C)C(=O)N[C@H]1CSSC[C@@H](C(=O)N[C@@H](Cc2c[nH]c3ccccc23)C(=O)N2CCC[C@H]2C(N)=O)NC(=O)[C@H]([C@@H](C)O)NC(=O)[C@H](CCC(N)=O)NC(=O)[C@H](Cc2c[nH]c3ccccc23)NC(=O)[C@H](CC(N)=O)NC(=O)[C@H](CC(=O)O)NC1=O)[C@@H](C)O) [SEQ ID NO 73] | – | – | 42 | – | – | – | –

More lines, main results first:

Row | Kd [3, 6] [nM] | kidney uptake (% IA/g) [4] | Kd [5] [nM] | Molecule | % Internalization (out of bound fraction) [1] | % Binding [2] | tumor uptake (% IA/g) [4] | Kd ([3]; read-out: SPR KD; biotinylated human DLL3 on streptavidin sensor chip, 25° C., 1:1 binding model) [nM]
4 | < 1 | C (“C” represents 0 < % IA/g ≤ 10 in) | – | CCCC[C@@H](C(=O)N[C@H]1CSSC[C@@H](C(=O)N[C@@H](Cc2c[nH]c3ccccc23)C(=O)N2CCC[C@H]2C(N)=O)NC(=O)[C@H](CC(=O)O)NC(=O)[C@H](CCCCNC(=O)CN2CCN(CC(=O)O)CCN(CC(=O)O)CCN(CC(=O)O)CC2)NC(=O)[C@H](Cc2ccc3ccccc3c2)NC(=O)[C@H](CC(N)=O)NC(=O)[C@H](CC2CCNCC2)NC1=O)N(C)C(=O)[C@@H](NC(=O)[C@H](Cc1c[nH]c2ccccc12)NC(C)=O)[C@@H](C)O [compound 300, Ac-W-T-(NMe-Nle)-C(3)-[3-(4-piperidinyl)-Ala]-N-(2Nal)-Lys(DOTA)-D-C(3)-W-P-CONH2] (Ac-WT[NMeNle]C[Ala(piperidin-4-yl)]N[2Nal]K(DOTA)DCWP-NH2; disulfide 4-10) | B (25 <% ≤50) | B (25 <% ≤50) | A (“A” represents 0 < % IA/g ≤ 5 in tumor) | –
5 | < 1 | C (“C” represents 0 < % IA/g ≤ 10 in) | – | CC(=O)N[C@@H](Cc1c[nH]c2ccccc12)C(=O)N[C@H](C(=O)N[C@H](C(=O)N[C@H]1CSSC[C@@H](C(=O)N[C@@H](Cc2c[nH]c3ccccc23)C(=O)N2CCC[C@H]2C(N)=O)NC(=O)[C@H](CC(=O)O)NC(=O)[C@H](CCCCNC(=O)CN2CCN(CC(=O)O)CCN(CC(=O)O)CCN(CC(=O)O)CC2)NC(=O)[C@H](Cc2ccc3ccccc3c2)NC(=O)[C@H](CC(N)=O)NC(=O)[C@H](CC2CCNCC2)NC1=O)C(C)(C)C)[C@@H](C)O [compound 301, Ac-W-T-(Tbg)-C(3)-[3-(4-piperidinyl)-Ala]-N-(2Nal)-Lys(DOTA)-D-C(3)-W-P-CONH2] (Ac-WT[Tle]C[Ala(piperidin-4-yl)]N[2Nal]K(DOTA)DCWP-NH2; disulfide 4-10) | B (25 <% ≤50) | B (25 <% ≤50) | A (“A” represents 0 < % IA/g ≤ 5 in tumor) | –
6 | – | – | 57 | Ac-MWVLCEWHECWPG-NH2 (disulfide 5-10; SMILES CSCC[C@H](NC(C)=O)C(=O)N[C@@H](Cc1c[nH]c2ccccc12)C(=O)N[C@H](C(=O)N[C@@H](CC(C)C)C(=O)N[C@H]1CSSC[C@@H](C(=O)N[C@@H](Cc2c[nH]c3ccccc23)C(=O)N2CCC[C@H]2C(=O)NCC(N)=O)NC(=O)[C@H](CCC(=O)O)NC(=O)[C@H](Cc2c[nH]cn2)NC(=O)[C@H](Cc2c[nH]c3ccccc23)NC(=O)[C@H](CCC(=O)O)NC1=O)C(C)C) [SEQ ID NO 75] | – | – | – | –
